From patent US20110071150A1 (priority 2009, published 2011) come the findings set out here.

What is called IC50 is the concentration needed to halve the response being measured.

This test relates to Jurkat IL-2 Production. Description: Jurkat IL-2 Production Assay. Format: cell-based. The settings on record: Homo sapiens, Jurkat cell (ATCC), 18-20 h incubation, PHA 5 μg/mL with 1% FBS, or PMA/Ionomycin with 30% FBS (table does not say which). The protocol:
Jurkat IL-2 Production Assay
Cell: Jurkat cell (ATCC) was grown in RPMI 1640 with 10% FBS and 1% penicillin/streptomycin. The cell density was kept at 1.2-1.8×10^6/mL in culture flask before seeding into culture plate, and the cell density in the plate was 0.5×10^6/[…]/well.
Culture media: RPMI 1640 with 1% FBS or 30% FBS for high serum assay.
Test compound: serial dilution was done in 100% DMSO, and intermediate dilution was done with RPMI 1640 medium with 1% FBS. The DMSO final concentration in culture well was 0.25%.
Stimulant: PHA (Sigma#L9017-10MG) was used for the assay with 1% FBS in culture medium, and added after 10 minutes exposure of cell to compound/DMSO. The PHA final concentration in culture well was 5 μg/mL. PMA (Sigma# P-8139 5MG)/Ionomycin (Sigma# 10634-5MG) was used for the assay with 30% FBS in culture medium, and added at same time point as the 1% FBS culture assay. The final concentration of PMA was 50 ng/mL, and Ionomycin final concentration was 500 ng/mL.
Incubation: at 37° C. with 5% CO2 and 95% humidity for 18 h˜20 h.
IC50: IC50 was calculated with the data analysis software XLfit4, General Pharmacology model 251.
The compound `Cc1cc(C(F)(F)F)ccc1-c1ccc2[nH]c(-c3c(F)cccc3F)cc2c1` [Example 32, 2-(2,6-Difluoro-phenyl)-5-(2-methyl-4-trifluoromethyl-phenyl)-1H-indole] returned an IC50 of 71 nM. As to `Cn1nc(C(F)(F)F)cc1-c1ccc2[nH]c(-c3cc(Cl)ccc3F)cc2c1` [Example 33, 2-(5-Chloro-2-fluoro-phenyl)-5-(2-methyl-5-trifluoromethyl-2H-pyrazol-3-yl)-1H-indole], half-maximal inhibition (IC50) required 741 nM.

Compound `Cn1nc(C(F)(F)F)cc1-c1ccc2[nH]c(-c3ccc(Cl)cc3Cl)cc2c1` [Example 34, 2-(2,4-Dichloro-phenyl)-5-(2-methyl-5-trifluoromethyl-2H-pyrazol-3-yl)-1H-indole] came in with a concentration for half-maximal inhibition (IC50) of 184 nM.

In the case of `Cn1nc(C(F)(F)F)cc1-c1ccc2[nH]c(-c3ccc(F)cc3Cl)cc2c1` [Example 35, 2-(2-Chloro-4-fluoro-phenyl)-5-(2-methyl-5-trifluoromethyl-2H-pyrazol-3-yl)-1H-indole], inhibition was half-maximal at 116 nM (IC50). The same measure for `Cn1nc(C(F)(F)F)cc1-c1ccc2[nH]c(-c3ccncc3Cl)cc2c1` [Example 36, 2-(3-Chloro-pyridin-4-yl)-5-(2-methyl-5-trifluoromethyl-2H-pyrazol-3-yl)-1H-indole]: 131 nM; for `Cc1cnccc1-c1cc2cc(-c3cc(C(F)(F)F)nn3C)ccc2[nH]1` [Example 37, 2-(3-Methyl-pyridin-4-yl)-5-(2-methyl-5-trifluoromethyl-2H-pyrazol-3-yl)-1H-indole]: 120 nM. Regarding `COc1ccc(-c2cc3cc(-c4cc(C(F)(F)F)nn4C)ccc3[nH]2)c(C)n1` [Example 38, 2-(6-Methoxy-2-methyl-pyridin-3-yl)-5-(2-methyl-5-trifluoromethyl-2H-pyrazol-3-yl)-1H-indole], inhibition was half-maximal at 83 nM (IC50). The compound `COC(=O)c1ccc(-c2cc3cc(-c4cc(C(F)(F)F)nn4C)ccc3[nH]2)c(C)c1` [Example 39, 3-Methyl-4-[5-(2-methyl-5-trifluoromethyl-2H-pyrazol-3-yl)-1H-indol-2-yl]-benzoic acid methyl ester] yielded an IC50 of 148 nM. On to `Cc1cc(C(=O)O)ccc1-c1cc2cc(-c3cc(C(F)(F)F)nn3C)ccc2[nH]1` [Example 40], for which the concentration for half-maximal inhibition (IC50) was 728 nM. In the case of `Cn1nc(C(F)(F)F)cc1-c1ccc2[nH]c(-c3cccc(Cl)c3Cl)cc2c1` [Example 41, 2-(2,3-Dichloro-phenyl)-5-(2-methyl-5-trifluoromethyl-2H-pyrazol-3-yl)-1H-indole], the IC50 was determined as 486 nM. `Cn1nc(C(F)(F)F)cc1-c1ccc2[nH]c(-c3cc(F)ccc3Cl)cc2c1` [Example 42, 2-(2-Chloro-5-fluoro-phenyl)-5-(2-methyl-5-trifluoromethyl-2H-pyrazol-3-yl)-1H-indole] had a half-inhibitory concentration (IC50) of 204 nM. The same measure for `COc1nccc(-c2cc3cc(-c4cc(C(F)(F)F)nn4C)ccc3[nH]2)c1Cl` [Example 43, 2-(3-Chloro-2-methoxy-pyridin-4-yl)-5-(2-methyl-5-trifluoromethyl-2H-pyrazol-3-yl)-1H-indole]: 87 nM; for `Cn1nc(C(F)(F)F)cc1-c1ccc2[nH]c(-c3ccncc3F)cc2c1` [Example 44, 2-(3-Fluoro-pyridin-4-yl)-5-(2-methyl-5-trifluoromethyl-2H-pyrazol-3-yl)-1H-indole]: 169 nM. The same measure for `Cc1noc(C)c1-c1cc2cc(-c3cc(C(F)(F)F)nn3C)ccc2[nH]1` [Example 45, 2-(3,5-Dimethyl-isoxazol-4-yl)-5-(2-methyl-5-trifluoromethyl-2H-pyrazol-3-yl)-1H-indole]: 375 nM; for `CCn1nc(C(F)(F)F)cc1-c1ccc2[nH]c(-c3c(F)cccc3F)cc2c1` [Example 46, 2-(2,6-Difluoro-phenyl)-5-(2-ethyl-5-trifluoromethyl-2H-pyrazol-3-yl)-1H-indole]: 44 nM; for `CCn1nc(C(F)(F)F)cc1-c1ccc2[nH]c(-c3c(F)cccc3Cl)cc2c1` [Example 47, 2-(2-Chloro-6-fluoro-phenyl)-5-(2-ethyl-5-trifluoromethyl-2H-pyrazol-3-yl)-1H-indole]: 40 nM. The compound `Cn1nc(C(F)(F)F)cc1-c1ccc2[nH]c(-c3c(F)cccc3Cl)cc2c1` [Example 48, 2-(2-Chloro-6-fluoro-phenyl)-5-(2-methyl-5-trifluoromethyl-2H-pyrazol-3-yl)-1H-indole] registered a half-maximal inhibitory concentration (IC50) of 12 nM. As to `CCn1nc(-c2cccnc2)cc1-c1ccc2[nH]c(-c3c(F)cccc3Cl)cc2c1` [Example 49, 2-(2-Chloro-6-fluoro-phenyl)-5-(2-ethyl-5-pyridin-3-yl-2H-pyrazol-3-yl)-1H-indole], the IC50 was determined as 13 nM. The IC50 values of the last two compounds are within 1.5-fold of each other.

Compound `Cc1sc(-c2cccnc2)nc1-c1ccc2[nH]c(-c3c(F)cccc3Cl)cc2c1` [Example 50, 2-(2-Chloro-6-fluoro-phenyl)-5-(5-methyl-2-pyridin-3-yl-thiazol-4-yl)-1H-indole] registered an IC50 of 13 nM. This counts as double-digit nanomolar.

With `Cn1nc(-c2ccncc2)cc1-c1ccc2[nH]c(-c3c(F)cccc3Cl)cc2c1` [Example 51, 2-(2-Chloro-6-fluoro-phenyl)-5-(2-methyl-5-pyridin-4-yl-2H-pyrazol-3-yl)-1H-indole], inhibition was half-maximal at 524 nM (IC50). This IC50 is about 40-fold higher than that of the compound before. With `Cc1cc(-c2ncco2)ccc1-c1ccc2[nH]c(-c3c(F)cccc3Cl)cc2c1` [Example 52, 2-(2-Chloro-6-fluoro-phenyl)-5-(2-methyl-4-oxazol-2-yl-phenyl)-1H-indole], the IC50 is 62 nM. As for `COC(=O)c1ccc(-c2ccc3[nH]c(-c4c(F)cccc4Cl)cc3c2)c(C)c1` [Example 53, 4-[2-(2-Chloro-6-fluoro-phenyl)-1H-indol-5-yl]-3-methyl-benzoic acid methyl ester], half-maximal inhibition (IC50) required 14 nM. This IC50 lies about 4.4-fold lower than the previous one.

As to `COc1ccc(-c2ccc3[nH]c(-c4c(F)cccc4Cl)cc3c2)c(OC)c1` [Example 54, 2-(2-chloro-6-fluoro-phenyl)-5-(2,4-dimethoxy-phenyl)-1H-indole], the 50% inhibitory concentration (IC50) worked out at 33 nM.

`Fc1cccc(Cl)c1-c1cc2cc(-c3ccc(C(F)(F)F)cc3C(F)(F)F)ccc2[nH]1` [Example 55, 5-(2,4-Bis-trifluoromethyl-phenyl)-2-(2-chloro-6-fluoro-phenyl)-1H-indole] returned a concentration for half-maximal inhibition (IC50) of 79 nM. Against the preceding compound, the IC50 is about 2.4-fold higher.

Compound `Fc1cccc(Cl)c1-c1cc2cc(-c3ccc(C(F)(F)F)cc3Cl)ccc2[nH]1` [Example 56, 2-(2-Chloro-6-fluoro-phenyl)-5-(2-chloro-4-trifluoromethyl-phenyl)-1H-indole] returned an IC50 of 132 nM. This IC50 is about 1.7-fold higher than that of the compound before. For `Cc1sc(-c2ccccn2)nc1-c1ccc2[nH]c(-c3ccc(F)cc3Cl)cc2c1` [Example 57, 2-(2-Chloro-4-fluoro-phenyl)-5-(5-methyl-2-pyridin-2-yl-thiazol-4-yl)-1H-indole], 301 nM corresponded to half-maximal inhibition (IC50). `Cc1sc(-c2ccccn2)nc1-c1ccc2[nH]c(-c3cc(F)ccc3Cl)cc2c1` [Example 58, 2-(2-Chloro-5-fluoro-phenyl)-5-(5-methyl-2-pyridin-2-yl-thiazol-4-yl)-1H-indole] gave an IC50 of 689 nM. Compared with the last compound, the IC50 is about 2.3-fold higher. The compound `Cn1nc(C(F)(F)F)cc1-c1ccc2[nH]c(-c3ccccc3Cl)cc2c1` [Example 59, 2-(2-Chloro-phenyl)-5-(2-methyl-5-trifluoromethyl-2H-pyrazol-3-yl)-1H-indole] yielded a half-maximal inhibitory concentration (IC50) of 105 nM. For the compound `Cc1ccccc1-c1cc2cc(-c3cc(C(F)(F)F)nn3C)ccc2[nH]1` [Example 60, 5-(2-Methyl-5-trifluoromethyl-2H-pyrazol-3-yl)-2-o-tolyl-1H-indole], the half-maximal inhibitory concentration (IC50) stood at 140 nM. This IC50 and that of the compound before are within 1.5-fold of each other. The compound `Cn1nc(C2CC2)cc1-c1ccc2[nH]c(-c3ccccc3Cl)cc2c1` [Example 61, 2-(2-Chloro-phenyl)-5-(5-cyclopropyl-2-methyl-2H-pyrazol-3-yl)-1H-indole] registered an IC50 of 848 nM. Take `Cc1ccccc1-c1cc2cc(-c3cc(C4CC4)nn3C)ccc2[nH]1` [Example 62, 5-(5-Cyclopropyl-2-methyl-2H-pyrazol-3-yl)-2-o-tolyl-1H-indole]: the half-inhibitory concentration (IC50) was 964 nM. This IC50 and that of the compound before are within 1.5-fold of each other. The compound `Cn1nc(C2CC2)cc1-c1ccc2[nH]c(-c3c(F)cccc3F)cc2c1` [Example 63, 5-(5-Cyclopropyl-2-methyl-2H-pyrazol-3-yl)-2-(2,6-difluoro-phenyl)-1H-indole] gave an IC50 of 368 nM. As to `Cc1sc(-c2cccnc2)nc1-c1ccc2[nH]c(-c3ccncc3F)cc2c1` [Example 64, 2-(3-Fluoro-pyridin-4-yl)-5-(5-methyl-2-pyridin-3-yl-thiazol-4-yl)-1H-indole], the IC50 is 81 nM. The same measure for `COC(=O)c1ccc(-c2cc3cc(-c4nc(-c5cccnc5)sc4C)ccc3[nH]2)c(C)c1` [Example 65, Methyl-4-[5-(5-methyl-2-pyridin-3-yl-thiazol-4-yl)-1H-indol-2-yl]-benzoic acid methyl ester]: 71 nM; for `COc1cc(F)c(-c2cc3cc(-c4nc(-c5cccnc5)sc4C)ccc3[nH]2)c(F)c1` [Example 66, 2-(2,6-Difluoro-4-methoxy-phenyl)-5-(5-methyl-2-pyridin-3-yl-thiazol-4-yl)-1H-indole]: 33 nM; for `Cc1sc(-c2cccnc2)nc1-c1ccc2[nH]c(-c3ccc(F)cc3Cl)cc2c1` [Example 67, 2-(2-Chloro-4-fluoro-phenyl)-5-(5-methyl-2-pyridin-3-yl-thiazol-4-yl)-1H-indole]: 63 nM.
